Consider one molecule from article PMC10095193, “Myokine Musclin Is Critical for Exercise-Induced Cardiac Conditioning” (International Journal of Molecular Sciences, 2023).

Residues, ends and D or L forms follow the SMILES beside them.

This series is described as follows: Synthetic musclin peptide plasma elimination half-life and volume of distribution (NMR of plasma after jugular vein injection). The format is in vivo, mouse. Here is the method:
The musclin [^13C,^15N-A26-V27]-labeled peptide sequence used was as follows: […], corresponding to amino acids 80–112; GenBank accession no. AAS87598.1 (Bio-synthesis, Inc. Lewisville, TX, USA). A peptide was synthesized with 98% purity, counter-ion exchange (TFA to Cl), and pH adjustment (Bio-synthesis, Inc. Lewisville, TX, USA).
For infusion, 1.7 mg of the chemically synthesized [^13C,^15N-A26-V27]-labeled musclin peptide was dissolved in 300 µL of PBS. This musclin solution was injected into the jugular vein. A 100 µL blood sample was then drawn from the carotid artery at 1, 3, 5, 7, 10, and 15 min after the peptide infusion. Blood was mixed with 5 µL of 10% NaEDTA and 1 µL of peptidase inhibitor cocktail (Sigma, St. Louis, MI, USA) and kept on ice, then centrifuged at 4 °C for 45 min at 14,000 rpm. Plasma was removed and stored at −80 °C for NMR studies.
All NMR spectra were acquired at 5 °C on a Bruker Avance II 800 MHz NMR spectrometer equipped with a TCI cryoprobe. 100 µL of plasma (see above) was added 150 µL NMR buffer containing 50 mM sodium phosphate, pH 7.1 with a final volume of 250 µL in 8.5% D2O/91.5% H2O. This sample was then transferred to a Shigemi NMR tube for NMR studies. One-dimensional (1D) ^1H, two-dimensional (2D) ^15N/^1H-heteronuclear single-quantum correlation (HSQC), 2D ^13C/^1H-HSQC with constant time experiment (HSQC-CT), and 2D ^15N/^1H-slice of the three-dimensional (3D) HNCO experiment were acquired for each blood sample drawn at different times after peptide infusion. The collected NMR data were processed using NMRPipe and analyzed using NMRView. The musclin peptide concentration present in these blood samples was calibrated by using a known amount of chemically synthesized [^13C,^15N-A26-V27]-labeled musclin peptide. The peak intensity of these acquired NMR spectra was measured and fitted to the equation for half-life in exponential decay using GraphPad Prism (GraphPad Software version 9.4.1).

The term half-life denotes the time needed for the level to fall by half in the phase considered. In general, Vd refers to a proportionality between amount in the body and measured concentration, not a real space. High values mean wide distribution into tissue, low ones little distribution into tissue. In the case of `CC(C)C[C@H](NC(=O)[C@H](CCCNC(=N)N)NC(=O)[C@H](CC(=O)O)NC(=O)[C@H](CC(C)C)NC(=O)[C@@H]1CCCN1C(=O)[C@H](CO)NC(=O)CNC(=O)[C@H](Cc1ccccc1)NC(=O)CNC(=O)[C@H](CO)NC(=O)[C@H](Cc1ccccc1)NC(=O)[C@@H](N)CO)C(=O)N[C@@H](CO)C(=O)N[C@@H](C)C(=O)NCC(=O)N[C@@H](CO)C(=O)N[C@H](C(=O)N[C@@H](CCC(=O)O)C(=O)N[C@@H](Cc1c[nH]cn1)C(=O)N[C@@H](CCCNC(=N)N)C(=O)NCC(=O)N[C@@H](CCCCN)C(=O)N[C@@H](CCC(N)=O)C(=O)N[C@@H](CCCNC(=N)N)C(=O)N[C@@H](CCCCN)C(=O)N[C@@H](C)C(=O)N[C@H](C(=O)N[C@@H](CC(=O)O)C(=O)N[C@@H](Cc1c[nH]cn1)C(=O)N[C@@H](CO)C(=O)N[C@@H](CCCCN)C(=O)N[C@@H](CCCCN)C(=O)N[C@@H](CCCNC(=N)N)C(=O)O)C(C)C)C(C)C` (H-SFSGFGSPLDRLSAGSVEHRGKQRKAVDHSKKR-OH; N-terminus and C-terminus assumed), the “Cl, clearance = Ke × Vd” value (calculated for a mouse of 27 g) is recorded as 1.71 mL/min. For the same molecule, the C0 (in vivo, iv, mouse, 1.7 mg i.v. (jugular vein), NMR calibrated with known amount of labeled peptide, read-out: initial plasma concentration) was found to be 36 µM. Further, under “in vivo, iv, mouse, 1.7 mg in 300 µL PBS injected into jugular vein, carotid artery blood at 1, 3, 5, 7, 10, 15 min, plasma NMR at 5 °C, HNCO (2D) peak intensities fitted to exponential decay, read-out: plasma elimination half-life (t ½)”, the half-life worked out at 4.6 min. The “volume of distribution (Vd) per g body weight” value (mouse of 31 g, Vd = administered dose/initial concentration, 1.7 mg i.v. (jugular vein)) is 0.419 ml/g of BW. For the same molecule, under “mouse, i.v. (jugular vein)”, the “Ke, elimination rate = 0.693/T1/2” value worked out at 0.151 min⁻¹. In addition, the Vd (mouse, in vivo, iv, for mice of 31 g, 1.7 mg/0.131 mg/mL) turned out to be 0.013 L.
